The assay concerns SN12K1 renal. The assay can be described thus: growth of human tumour cells (NCI), 48 h.

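Following 48 hours of exposure in 96-well plates, responses at five concentrations were used to interpolate endpoints linearly. GI50 = concentration required for 50% inhibition of growth. TGI marks complete inhibition of growth.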

On to `CC[C@H]1CN2CCc3cc(OC)c(OC)cc3[C@@H]2C[C@@H]1C[C@H]1NCCc2cc(O)c(OC)cc21`, for which the GI50 is 25 nM and the TGI is 191 nM.

Values taken from PubChem BioAssay (NCI).
